Experiments:
Assay in all cases: viability inhibition at highest dose (% inhibition); higher = more growth inhibition
T-47D = details: 72 h
Experimental: (§1)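 Percent inhibition of viability (CellTiter-Glo, 72 h) at the highest tested concentration (D5), normalised to DMSO (0%) and 100 µM benzethonium chloride (100%). Resistant lines and the 'in 1µM tamoxifen' arms were tested in 1 µM 4-OH-tamoxifen.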

MCF-7 Tam1 = details: 4-OH-tamoxifen in medium 1 µM; 72 h
Experimental: as §1

BT-474 Tam1 = details: 4-OH-tamoxifen in medium 1 µM; 72 h
Experimental: as §1

BT-474 Tam2 = details: 4-OH-tamoxifen in medium 1 µM; 72 h
Experimental: as §1

MCF-7 = details: 72 h
Experimental: as §1

ZR-75-1 Tam2 = details: 4-OH-tamoxifen in medium 1 µM; 72 h
Experimental: as §1

T-47D Tam2 = details: 4-OH-tamoxifen in medium 1 µM; 72 h
Experimental: as §1

ZR-75-1 = details: 72 h
Experimental: as §1

BT-474 = details: 72 h
Experimental: as §1

ZR-75-1 Tam1 = details: 4-OH-tamoxifen in medium 1 µM; 72 h
Experimental: as §1

T-47D Tam1 = details: 4-OH-tamoxifen in medium 1 µM; 72 h
Experimental: as §1

Structure (SMILES) | viability inhibition at highest dose (T-47D; 4-OH-tamoxifen in medium 0 µM) | viability inhibition at highest dose (T-47D; 4-OH-tamoxifen in medium 1 µM) | viability inhibition at highest dose (MCF-7 Tam1) | viability inhibition at highest dose (BT-474 Tam1) | viability inhibition at highest dose (BT-474 Tam2) | viability inhibition at highest dose (MCF-7; 4-OH-tamoxifen in medium 0 µM) | viability inhibition at highest dose (MCF-7; 4-OH-tamoxifen in medium 1 µM) | viability inhibition at highest dose (ZR-75-1 Tam2) | viability inhibition at highest dose (T-47D Tam2) | viability inhibition at highest dose (ZR-75-1; 4-OH-tamoxifen in medium 0 µM) | viability inhibition at highest dose (ZR-75-1; 4-OH-tamoxifen in medium 1 µM) | viability inhibition at highest dose (BT-474; 4-OH-tamoxifen in medium 0 µM) | viability inhibition at highest dose (BT-474; 4-OH-tamoxifen in medium 1 µM) | viability inhibition at highest dose (ZR-75-1 Tam1) | viability inhibition at highest dose (T-47D Tam1)
COc1cc2/c(=N/c3ccc(Br)cc3F)nc[nH]c2cc1OCC1CCN(C)CC1 [Vandetanib  (ZD6474, Zactima)] (drug 1000 nM) | -1.36 | -3.82 | -0.506 | 22 | 15 | 15.2 | 11.9 | 0.544 | 20.8 | -14.7 | -3 | 2.03 | 5.94 | 4.94 | 11.5
CC(=O)c1c(C)c2cnc(Nc3ccc(N4CCNCC4)cn3)nc2n(C2CCCC2)c1=O (drug 10000 nM) | 28.1 | 0.74 | 21.2 | 6.18 | 9.88 | 33.1 | 27.9 | 24.2 | 21.5 | 2.14 | 20.6 | 1.33 | 4.19 | 18.7 | 29.5
CNNCc1ccc(C(=O)NC(C)C)cc1 [Procarbazine] (drug 10000 nM) | -8.64 | 3.29 | -2.96 | 3.72 | -9.69 | -15.7 | -26.1 | -4.74 | 18.8 | -8.18 | 1.35 | -6.73 | -0.151 | 5.75 | 0.22
CCCCC(=O)OCC(=O)[C@]1(O)Cc2c(O)c3c(c(O)c2[C@@H](O[C@H]2C[C@H](NC(=O)C(F)(F)F)[C@H](O)[C@H](C)O2)C1)C(=O)c1c(OC)cccc1C3=O [Valrubicin] (drug 10000 nM) | 58.2 | 68.2 | 30.4 | 75.8 | 59.5 | 55 | 77 | 85.4 | 63.2 | 59.8 | 58.9 | 42.6 | 77.1 | 70.3 | 67.9
C=CCn1c(=O)c2cnc(Nc3ccc(N4CCN(C)CC4)cc3)nc2n1-c1cccc(C(C)(C)O)n1 [MK-1775] (drug 10000 nM) | 22.4 | 16.9 | 6.3 | 40.9 | 30.6 | 51.7 | 35.9 | 1.58 | 38.8 | 21.9 | 14.6 | 25 | 44 | 1.62 | 39.6
CC(C)C[C@@H](C(=O)N[C@H](C(=O)OC1CCCC1)c1ccccc1)[C@H](O)C(=O)NO [Tosedostat (CHR 2797)] (drug 10000 nM) | 33.3 | 15.7 | 14.2 | 34.7 | 28.5 | 40.5 | 38.1 | 37 | 48.2 | 22.3 | 28.8 | 19 | 54.7 | 30 | 46.1
C=C1C[C@@H]2[C@H](CC[C@]3(C)C(=O)CC[C@@H]23)[C@@]2(C)C=CC(=O)C=C12 [Exemestane] (drug 10000 nM) | -12.5 | -2.8 | 3.68 | 0.0289 | -0.955 | 19.4 | 7.88 | -3.66 | 19.2 | -15.1 | -6.66 | 0.814 | 0.09 | 4.25 | 2.32
